Results published in ChEMBL document CHEMBL3046606, “Synthesis and antifungal activity of novel sulfone derivatives containing 1,3,4-oxadiazole moieties” (Molecules, 2011).

System: Cytospora
Assay: Antifungal activity against Cytospora mandshurica at 50 ug/ml after 5 days by poison plate technique
Assay type: functional
Conditions: 120 h

SMILES	inhibition at 50 µg/mL [%]
COc1ccccc1-c1nnc(S(C)(=O)=O)o1	91.3
Cc1ccccc1-c1nnc(S(C)(=O)=O)o1	99.3
